Measurements published in paper PMC10638401, “Mannich-type modifications of (−)-cannabidiol and (−)-cannabigerol leading to new, bioactive derivatives” (Scientific Reports, 2023).
≈ marks a conversion by molar mass, not a printed value.

Experiments:
[1] = test system: Enterococcus faecalis 51299 VanB; experiment: MIC, broth micro dilution; details: Enterococcus faecalis, 51299VANB
Protocol: (§3) According to CLSI guideline the Minimal Inhibitory Concentrations (MICs) of the prepared compounds were determined with the broth micro dilution method. After an overnight growth on 5% bovine blood agar plates at 35 °C bacterial strains were suspended in physiological saline in order to reach the density of 0.5 McFarland for inoculation. Stock solutions containing different concentrations of the substances were prepared in DMSO and H2O (1:1). These were twofold serially diluted from 256 to 0.5 mg/l in Mueller–Hinton broth, and 100 ml of each dilution was inoculated with 10 ml of each bacterial suspension.

[2] = test system: Enterococcus faecalis 29 212; experiment: MIC, broth micro dilution; details: Enterococcus faecalis, 29212
Protocol: as §3

Pseudomonas aeruginosa = experiment: Antibacterial effect, broth micro dilution; type: cell-based
A2780 cells = experiment: Antiproliferative MTT assay, 72 h; type: cell-based, human; details: Homo sapiens, A2780, 30 μM, read-out: inhibition of the proliferation
Source text: (§1) Human adherent cancer cell lines A2780, MDA-MB-231 and MCF-7 were obtained from ECACC (European Collection of Cell Cultures, Salisbury, UK; Cat. No.93112519, 92020424, 86012803, respectively). SiHa cell line was obtained from ATCC (American Tissue Culture Collection, Manassas, Virginia, USA; Cat. No. HTB-35). All cell lines used for antiproliferative assay were maintained in Eagle's Minimum Essential Medium (EMEM) completed with 10% fetal bovine serum (FBS), 1% non-essential amino acid solution, and 1% penicillin, streptomycin, and amphotericin B mixture under cell culture conditions described before. All the utilized media and supplements were purchased from Lonza Group Ltd. (Basel, Switzerland).
(§2) The antiproliferative actions of the prepared molecules were determined by the same assay against a panel of adherent human cancer cell lines containing cervical (SiHa), ovarian (A2780) and breast (MCF7, MDA-MB-231) cell lines. Cells were plated onto 96-well microplates (5000 cells/well) and after an overnight incubation treated with two concentrations (10 or 30 μM) of the test substances for 72 h under cell culture conditions. Subsequently, MTT (5 mg/ml in phosphate buffer) was added to the wells, followed by incubation for 4 h. The supernatant was removed, the formazan crystals were then dissolved in 100 µl DMSO. Finally, absorbance values were determined by a microplate reader (BMG Labtech, Ortenberg, Germany) at 545 nm. Two independent measurements were performed with five parallel wells. Results were expressed as percentage of cell proliferation inhibition compared to non-treated control samples regarded as 0%.

MCF7 cells = experiment: Antiproliferative MTT assay, 72 h; type: cell-based, human; details: Homo sapiens, MCF7, 30 μM, read-out: inhibition of the proliferation
Source text: as §1, §2

[3] = test system: Enterococcus faecalis 15 376 VanA; experiment: MIC, broth micro dilution; details: Enterococcus faecalis, 15376VANA
[4] = test system: Staphylococcus epidermidis mecA; experiment: MIC, broth micro dilution; details: Staphylococcus epidermidis
Protocol: as §3

[5] = test system: multidrug-resistant Acinetobacter baumannii; experiment: Antibacterial effect, broth micro dilution
Protocol: as §3

[6] = test system: Klebsiella pneumoniae carbapenemase-producing bacteria; experiment: Antibacterial effect, broth micro dilution
Protocol: as §3

Bacillus subtilis = experiment: MIC, broth micro dilution
Protocol: as §3

[7] = test system: Staphylococcus epidermidis biofilm forming; experiment: MIC, broth micro dilution; details: Staphylococcus epidermidis
[8] = test system: MSSA (Methicillin Sensitive Staphylococcus aureus); experiment: MIC, broth micro dilution; details: Staphylococcus aureus
Protocol: as §3

SZ95 sebocytes = experiment: Viability MTT-assay on sebocytes, 48 h; type: cell-based, human; details: 30 μM
Protocol: Human immortalized SZ95 sebocytes, originated from human facial sebaceous glands[50] were provided by prof. Christos C. Zouboulis, and were cultured in Sebomed® Basal Medium (Cat. No. F8205; Sigma-Aldrich) supplemented with 10% FBS (Gibco-Thermo Fisher Scientific), 1 mM CaCl2 (Cat. No. C7902; Sigma-Aldrich), 5 ng/ml human epidermal growth factor (Cat. No. E9644; Sigma-Aldrich), and MycoZap™ Plus-CL (1:500; Lonza). The medium was changed every other day, and cells were subcultured at 60–70% confluence.
The viability of HaCaT keratinocytes and SZ95 sebocytes was determined by MTT-assay[58] (Cat. No. M5655; Sigma-Aldrich) measuring the conversion of the tetrazolium salt to formazan by mitochondrial dehydrogenases. Cells were plated in 96-well plates (20,000 cells/well), and were treated as indicated. Cells were then incubated with 0.5 mg/ml MTT reagent for 3 h, and concentration of formazan crystals (as an indicator of number of viable cells) was determined colorimetrically at 565 nm by using FlexStation 3 multi-mode microplate reader (Molecular Devices). Results were expressed as percentage of vehicle-treated control regarded as 100%.

in vitro = details: African green monkey
Escherichia coli = experiment: Antibacterial effect, broth micro dilution; type: cell-based
SARS-CoV-2 = SARS-CoV-2 cytopathic effect (CPE) inhibition assay in Vero E6 cells (XTT); type: cell-based; details: Severe acute respiratory syndrome coronavirus 2, Vero C1008, 72 h; Vero E6 cells, 3 days post-infection, XTT
Protocol: CBD and CBG derivatives were further tested for their ability to inhibit SARS-CoV-2 replication in Vero E6 cells. Initially, the inhibition of virus-induced cytopathic effect was measured by addition of twofold serial dilutions of each derivative to the cells, followed by the infection with SARS-CoV-2 and determination of the cell viability 3 days post-infection by XTT assay. Concurrently, the cytotoxicity of each compound was assessed from identical dilutions in uninfected Vero E6 cells. To confirm anti-SARS-CoV-2 activity in the CPE inhibition assay, selected compounds were tested in immunofluorescence assay, where inhibition of SARS-CoV-2 replication was monitored as reduction in nucleoprotein expression using fluorescence microscope. […] Among the CBG derivatives, we can find quite cytotoxic and non-cytotoxic derivatives as well.
For CPE-based assay, two-fold fold serial dilutions of compounds from 100 µM were added in triplicate in a 384-well plate with 5000 Vero E6 cells in DMEM medium with 2% FBS, 100 U of penicillin/ml and 100 µg of streptomycin/ml (all Merck). After 1 h incubation SARS-CoV-2 (strain hCoV-19/Czech Republic/NRL_6632_2/2020) was added at multiplicity of infection […]. Following three days incubation at 37 °C in 5% CO2 the cell viability was determined by addition of XTT solution (Sigma-Aldrich) for 4 h and the absorbance was measured using EnVision plate reader (Perkin Elmer). Drug concentrations required to reduce viral cytopathic effect by 50% (EC50) were calculated using nonlinear regression from plots of percentage cell viability versus log10 drug concentration using GraphPad Prism (version 9.0.0, GraphPad Software, LLC). For immunofluorescence assay, two-fold fold serial dilutions of compounds from 100 µM were added in triplicate in 96-well plate with 15,000 Vero E6 cells plated day before in the same medium as above. After 1 h incubation, SARS-CoV-2 was added at multiplicity of infection 0.05 IU/cell. After three days of incubation, cells were fixed with 4% paraformaldehyde, permeabilized with 0.2% Triton X100 (both Merck), washed, incubated with anti-SARS-CoV-2antibody (mouse monoclonal antibody detecting SARS-CoV-2 nucleoprotein) for 2 h at room temperature. Followed by 1.5 h incubation with Cy3-labeled donkey anti-mouse IgG (Jackson ImmunoResearch Europe) and documented using fluorescence microscope with camera (Olympus). Images were processed in ImageJ software (NIH) and compound concentrations required to reduce fluorescence by 50% (EC50s) were calculated from plots of percentage of fluorescent cells versus log10 drug concentration using nonlinear regression analysis as above. Cytotoxicity was evaluated by incubating with the same two-fold serial dilutions of each compound as above with Vero E6 cells in 384-well plate.

[9] = test system: MRSA (Methicillin Resistant Staphylococcus aureus); experiment: MIC, broth micro dilution; details: Staphylococcus aureus
Protocol: as §3

Structure (SMILES): CCCCCc1cc(O)c(C/C=C(\C)CCC=C(C)C)c(O)c1 [Compound 2, (−)-cannabigerol]
- MIC [1]: 4 µg/mL (≈ 12.6 µM)
- MIC [2]: 4 µg/mL (≈ 12.6 µM)
- antibacterial effect (no effect up to) (Pseudomonas aeruginosa): > 256 µg/mL
- inhibition at 30 µM (A2780 cells): > 90%
- inhibition at 30 µM (MCF7 cells): > 90%
- MIC [3]: 4 µg/mL (≈ 12.6 µM)
- MIC [4]: 8 µg/mL (≈ 25.3 µM)
- antibacterial effect (no effect up to) [5]: > 256 µg/mL
- antibacterial effect (no effect up to) [6]: > 256 µg/mL
- MIC (Bacillus subtilis): 2 µg/mL (≈ 6.32 µM)
- MIC [7]: 8 µg/mL (≈ 25.3 µM)
- MIC [8]: 4 µg/mL (≈ 12.6 µM)
- viability (MTT signal intensity) (SZ95 sebocytes): tended to suppress viability
- CC50 (in vitro): ~11 µM
- antibacterial effect (no effect up to) (Escherichia coli): > 256 µg/mL
- EC50 (SARS-CoV-2): > 11 µM
- MIC [9]: 4 µg/mL (≈ 12.6 µM)
